This passage reports IC50 results from PubChem BioAssay AID668 (University of Pittsburgh Molecular Library Screening Center, 2007).

The test deals with M-phase inducer phosphatase 2 (Homo sapiens) (UniProt P30305). Kind of test: Cdc25B catalytic domain inhibition plus catalase – biochemical, catalase present, probe assessment, dose response (AID 668). The settings on record: recombinant Cdc25B catalytic domain, phosphatase activity, with catalase.
M-phase inducer phosphatase 2 (Homo sapiens), sequence (P30305 whole entry, looked up, the tested form may be a part): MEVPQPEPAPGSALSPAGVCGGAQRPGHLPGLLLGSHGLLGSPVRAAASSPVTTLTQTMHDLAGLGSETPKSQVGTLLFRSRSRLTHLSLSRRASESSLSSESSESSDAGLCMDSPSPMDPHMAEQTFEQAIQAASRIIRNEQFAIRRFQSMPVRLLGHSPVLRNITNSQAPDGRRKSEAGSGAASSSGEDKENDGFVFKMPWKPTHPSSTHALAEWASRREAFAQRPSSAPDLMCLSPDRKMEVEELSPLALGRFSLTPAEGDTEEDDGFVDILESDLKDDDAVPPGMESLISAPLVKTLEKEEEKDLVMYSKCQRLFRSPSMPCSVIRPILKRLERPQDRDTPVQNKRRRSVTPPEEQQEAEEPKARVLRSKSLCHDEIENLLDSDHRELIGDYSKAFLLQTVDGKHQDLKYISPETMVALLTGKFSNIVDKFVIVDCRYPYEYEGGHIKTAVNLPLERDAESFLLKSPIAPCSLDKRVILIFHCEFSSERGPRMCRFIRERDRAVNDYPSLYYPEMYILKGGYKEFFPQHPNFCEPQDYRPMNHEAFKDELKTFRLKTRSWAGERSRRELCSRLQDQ

By IC50 is commonly meant the concentration at which inhibition is half-maximal. For `COc1cccc2c(C)c(C(=O)O)[nH]c12`, the IC50 was 7.11 µM.
The same measure for `c1ccc(CSc2nnc(-c3ccco3)c(-c3ccco3)n2)cc1`: 15.7 µM.
